From patent US8987252B2, “Aryloxy- and heteroaryloxy-substituted tetrahydrobenzazepines and use thereof to block reuptake of norepinephrine, dopamine, and serotonin” (Albany Molecular Research, Inc., priority 2007, dated 2015)
Structures can show the parent of a compound that is named as a salt.

Compound	melting point [°C]
CN1CCC(Oc2cc(F)cc(F)c2)c2ccc(-c3cccnn3)cc2C1 (centres unmarked) (as salt: tartrate) [Example 5, 5-(3,5-difluorophenoxy)-2-methyl-8-(pyridazin-3-yl)-2,3,4,5-tetrahydro-1H-benzo[c]azepine]	94 to 96
CN1CCC(Oc2ccc(F)cc2F)c2ccc(-c3cccnn3)cc2C1 (centres unmarked) (as salt: tartrate) [Example 9, 5-(2,4-Difluorophenoxy)-2-methyl-8-(pyridazin-3-yl)-2,3,4,5-tetrahydro-1H-benzo[c]azepine]	98 to 100
CN1CCC(Oc2cccnc2)c2ccc(-c3cccnn3)cc2C1 (centres unmarked) (as salt: tartrate) [Example 11, 2-methyl-8-(pyridazin-3-yl)-5-(pyridin-3-yloxy)-2,3,4,5-tetrahydro-1H-benzo[c]azepine]	120 to 123
CN1CCC(Oc2ccccc2F)c2ccc(-c3cccnn3)cc2C1 (centres unmarked) (as salt: tartrate) [Example 12, 5-(2-fluorophenoxy)-2-methyl-8-(pyridazin-3-yl)-2,3,4,5-tetrahydro-1H-benzo[c]azepine]	96 to 98
CN1CCC(Oc2cc(F)cc(F)c2)c2ccc(-c3cccnn3)cc2C1 (centres unmarked) (as salt: tartrate) [Example 14, 5-(3,5-difluorophenoxy)-2-methyl-8-(pyridazin-3-yl)-2,3,4,5-tetrahydro-1H-benzo[c]azepine]	120 to 122
CN1CCC(Oc2cccc3ccccc23)c2ccc(-c3cccnn3)cc2C1 (centres unmarked) (as salt: tartrate) [Example 15, 2-Methyl-5-(naphthalen-1-yloxy)-8-(pyridazin-3-yl)-2,3,4,5-tetrahydro-1H-benzo[c]azepine]	100 to 102
Cc1ccc(-c2ccc3c(c2)CNCCC3Oc2ccccc2)nn1 (centres unmarked) (as salt: tartrate) [Example 32, 8-(6-methylpyridazin-3-yl)-5-phenoxy-2,3,4,5-tetrahydro-1H-benzo[c]azepine]	115 to 118
CN1CCC(Oc2ccc3cccnc3c2)c2ccc(-c3cccnn3)cc2C1 (centres unmarked) (as salt: tartrate) [Example 33, 2-methyl-8-(pyridazin-3-yl)-5-(quinolin-7-yloxy)-2,3,4,5-tetrahydro-1H-benzo[c]azepine]	120 to 122
CN1CCC(Oc2ccccc2Cl)c2ccc(-c3cccnn3)cc2C1 (centres unmarked) (as salt: tartrate) [Example 34, 5-(2-chlorophenoxy)-2-methyl-8-(pyridazin-3-yl)-2,3,4,5-tetrahydro-1H-benzo[c]azepine]	100 to 102
CN1CCC(Oc2ccccc2Cl)c2ccc(-c3cccnn3)cc2C1 (centres unmarked) (as salt: tartrate) [Example 35, 5-(2-chlorophenoxy)-2-methyl-8-(pyridazin-3-yl)-2,3,4,5-tetrahydro-1H-benzo[c]azepine]	104 to 106
CN1CCC(Oc2ccccc2)c2ccc(-c3ncccn3)cc2C1 (centres unmarked) (as salt: tartrate) [Example 49, 2-Methyl-5-phenoxy-8-(pyrimidin-2-yl)-2,3,4,5-tetrahydro-1H-benzo[c]azepine]	108 to 110
CN1CCC(Oc2cccc(F)c2F)c2ccc(-c3cccnn3)cc2C1 (centres unmarked) (as salt: tartrate) [Example 51, 5-(2,3-difluorophenoxy)-2-methyl-8-(pyridazin-3-yl)-2,3,4,5-tetrahydro-1H-benzo[c]azepine]	112 to 114
CN1CCC(Oc2cc(F)ccc2F)c2ccc(-c3cccnn3)cc2C1 (centres unmarked) (as salt: tartrate) [Example 54, 5-(2,5-difluorophenoxy)-2-methyl-8-(pyridazin-3-yl)-2,3,4,5-tetrahydro-1H-benzo[c]azepine]	102 to 104
CN1CCC(Oc2c(F)cccc2F)c2ccc(-c3cccnn3)cc2C1 (centres unmarked) (as salt: tartrate) [Example 55, 5-(2,6-difluorophenoxy)-2-methyl-8-(pyridazin-3-yl)-2,3,4,5-tetrahydro-1H-benzo[c]azepine]	98 to 100

Further lines, results first:

melting point [°C]	Compound
122 to 124	CN1CCC(Oc2ccc3ccccc3c2)c2ccc(-c3cccnn3)cc2C1 (centres unmarked) (as salt: tartrate) [Example 1, 2-methyl-5-(naphthalen-2-yloxy)-8-(pyridazin-3-yl)-2,3,4,5-tetrahydro-1H-benzo[c]azepine]
106 to 108	CN1CCC(Oc2ccc(Cl)cc2)c2ccc(-c3cccnn3)cc2C1 (centres unmarked) (as salt: tartrate) [Example 2, 5-(4-chlorophenoxy)-2-methyl-8-(pyridazin-3-yl)-2,3,4,5-tetrahydro-1H-benzo[c]azepine]
104 to 106	Cc1ccc(OC2CCN(C)Cc3cc(-c4cccnn4)ccc32)cc1 (centres unmarked) (as salt: tartrate) [Example 3, 2-methyl-8-(pyridazin-3-yl)-5-(p-tolyloxy)-2,3,4,5-tetrahydro-1H-benzo[c]azepine]
104 to 106	CN1CCC(Oc2ccc(OC(F)(F)F)cc2)c2ccc(-c3cccnn3)cc2C1 (centres unmarked) (as salt: tartrate) [Example 4, 2-methyl-8-(pyridazin-3-yl)-5-(4-(trifluoromethoxy)phenoxy)-2,3,4,5-tetrahydro-1H-benzo[c]azepine]
94 to 96	CN1CCC(Oc2ccc(C#N)cc2)c2ccc(-c3cccnn3)cc2C1 (centres unmarked) (as salt: tartrate) [Example 6, 4-(2-Methyl-8-(pyridazin-3-yl)-2,3,4,5-tetrahydro-1H-benzo[c]azepin-5-yloxy)benzonitrile]
102 to 104	CN1CCC(Oc2ccc(Cl)c(Cl)c2)c2ccc(-c3cccnn3)cc2C1 (centres unmarked) (as salt: tartrate) [Example 7, 5-(3,4-Dichlorophenoxy)-2-methyl-8-(pyridazin-3-yl)-2,3,4,5-tetrahydro-1H-benzo[c]azepine]
100 to 102	CN1CCC(Oc2ccc(F)c(F)c2)c2ccc(-c3cccnn3)cc2C1 (centres unmarked) (as salt: tartrate) [Example 8, 5-(3,4-Difluorophenoxy)-2-methyl-8-(pyridazin-3-yl)-2,3,4,5-tetrahydro-1H-benzo[c]azepine]
98 to 100	CN1CCC(Oc2ccccc2)c2ccc(-c3cccnn3)cc2C1 (centres unmarked) (as salt: tartrate) [Example 10, 2-methyl-5-phenoxy-8-(pyridazin-3-yl)-2,3,4,5-tetrahydro-1H-benzo[c]azepine]
96 to 98	CN1CCC(Oc2cccc(F)c2)c2ccc(-c3cccnn3)cc2C1 (centres unmarked) (as salt: tartrate) [Example 13, 5-(3-fluorophenoxy)-2-methyl-8-(pyridazin-3-yl)-2,3,4,5-tetrahydro-1H-benzo[c]azepine]
120 to 122	CN1CCC(Oc2ccc3ccccc3c2)c2ccc(-c3cccnn3)cc2C1 (centres unmarked) (as salt: tartrate) [Example 18, 5-(naphthalen-2-yloxy)-2-methyl-8-(pyridazin-3-yl)-2,3,4,5-tetrahydro-1H-benzo[c]azepine]
113 to 115	CN1CCC(Oc2cccc(C#N)c2)c2ccc(-c3cccnn3)cc2C1 (centres unmarked) (as salt: tartrate) [Example 52, 5-(3-cyanophenoxy)-2-methyl-8-(pyridazin-3-yl)-2,3,4,5-tetrahydro-1H-benzo[c]azepine]
110 to 112	CN1CCC(Oc2ccc(C#N)cc2)c2ccc(-c3cccnn3)cc2C1 (centres unmarked) (as salt: tartrate) [Example 53, 5-(4-cyanophenoxy)-2-methyl-8-(pyridazin-3-yl)-2,3,4,5-tetrahydro-1H-benzo[c]azepine]
